From PMC5415608, “The Effects of Herbicides Targeting Aromatic and Branched Chain Amino Acid Biosynthesis Support the Presence of Functional Pathways in Broomrape” (Frontiers in Plant Science, 2017)

Tests used:
[1] = test system: T1, EPSPS (P. aegyptiaca 5-enolpyruvylshikimate-3-phosphate synthase); assay: colorimetric phosphate release assay ([…] nm), partially purified extract; format: biochemical, Phelipanche aegyptiaca; details: callus enzyme; 1 mM shikimate-3-phosphate (natural substrate), 0.1 mM phosphoenolpyruvate, 500 mM MES pH 5.5, 2 mM DTT, 30°C, 15 min; read-out: ID50 (the source's name)
T1 construct: single gene copy found; predicted 64-residue chloroplast transit peptide

[2] = test system: T2, ALS from young tomato leaves; assay: colorimetric acetoin assay (creatine/alpha-naphthol, […] nm), partially purified extract; format: biochemical, Solanum lycopersicum; details: young leaf enzyme; 167 mM pyruvate, 16.7 mM MgCl2, 1.67 mM TPP, 16.6 μM FAD, pH 7.0, 37°C, 60 min; read-out: ID50 (the source's name)
T2 construct: gene ALS1; native, partially purified extract of young tomato leaves

[3] = test system: T3, ALS (P. aegyptiaca acetolactate synthase); assay: as above; format: biochemical, Phelipanche aegyptiaca; details: flowering shoot enzyme; 167 mM pyruvate, 16.7 mM MgCl2, 1.67 mM TPP, 16.6 μM FAD, pH 7.0, 37°C, 60 min; read-out: ID50 (the source's name)
T3 construct: single gene copy found; predicted 42-residue chloroplast transit peptide

| SMILES | IC50 [1] [nM] | IC50 [2] [nM] | IC50 [3] [nM] |
| --- | --- | --- | --- |
| O=C(O)CNCP(=O)(O)O [glyphosate] | ~8000 |  |  |
| Cc1cnc(C2=NC(C)(C(C)C)C(=O)N2)c(C(=O)O)c1 (centres unmarked) [imazapic] |  | ~470 | 2070 ± 70 |
| CC(C)C1(C)N=C(c2ncccc2C(=O)O)NC1=O (centres unmarked) [imazapyr] |  |  | 11600 ± 1200 |
| CCS(=O)(=O)c1cccnc1S(=O)(=O)NC(=O)Nc1nc(OC)cc(OC)n1 [rimsulfuron] |  |  | 110 ± 30 |
